# Source: patent publication US6747024B1, “Heterocyclic compounds and their use as medicines” (Societe de Conseils de Recherches et d'Applications …, priority 1999, dated 2004)
row,melting point [°C],SMILES
1,199 to 201,"CC(=O)O[C@H]1OCC[C@@H]1NC(=O)[C@H](CC(C)C)NC(=O)c1ccc2c(c1)Nc1ccccc1S2 [Example 18.1, (2R,3S)-3-({(2S)-4-methyl-2-[(10H-phenothiazin-2-ylcarbonyl)amino]-pentanoyl}amino)tetrahydro-2-furanyl acetate]"
2,205 to 208,"CC(=O)O[C@@H]1OCC[C@@H]1NC(=O)[C@H](CC(C)C)NC(=O)c1ccc2c(c1)Nc1ccccc1S2 [Example 18.2, (2S,3S)-3-({(2S)-4-methyl-2-[(10H-phenothiazin-2-ylcarbonyl)amino]-pentanoyl}amino)tetrahydro-2-furanyl acetate]"
